# Marks after values point to notes of the source that are not given here.
# Legend:
# [1] = target: T1, BTK (Homo sapiens, UniProt Q06187); assay: BTK target site occupancy ELISA (PBMC); type: cell-based; details: BTK receptor occupancy
# Experimental: (§1) An enzyme-linked immunosorbent assay (ELISA) method for the detection of free uninhibited Btk in mouse and human lysates. Human or mouse whole blood were incubated with compound for 2 hour at 37° C. Whole blood were lysed in ice-cold lysis buffer containing 50 mM Tris-HCl, pH 7.5, 150 mM NaCl, 1 mM EDTA,1% Triton X-100. […] Samples were transferred to a streptavidin-coated 96-well ELISA plate and mixed while shaking for 1 hour at room temperature. The α-Btk antibody (1:500; clone number D3H5, Cell signaling Technology, Danvers, MA, USA) was then added to the well and incubated for 1 hour at room temperature. After wash, goat α-rabbit-FW (1:5000 dilution in PBS+ 0.05% Tween-20 + 1% BSA) was added to each well and incubated for 1 h at room temperature. The ELISA was developed with addition of tetramethyl benzidine (TMB) followed by Stop Solution and read at OD 450 nm.
# [2] = system: NCI-H1975 EGFR L858R/T790M cells; assay: Cell proliferation, NCI-H1975 EGFR L858R/T790M (CellTiter-Glo, 72 h); type: cell-based; details: Homo sapiens, NCI-H1975, 72 h, NCI-H1975, 72 h proliferation; read-out: EGFR L858R and T790M mutation GI50;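 further: viable cells quantified by luciferase-based ATP luminescence, proliferation expressed relative to DMSO-treated wells (100%) after subtracting a parallel plate read at the time of dosing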
# Experimental: (§2) WT or mutant cells were seeded in 384 well plates at appropriate concentrations with corresponding growth media supplemented with 10% FBS, for each experiment, identical plates were prepared in duplicates, and the plates were incubated overnight. On the next day, one of each duplicated plates was dosed with tested compounds at a series of concentrations, and another one of the duplicated plate was analysied for G0 value. The dosed plates were incubate for another 72 h at 37° C. with 5% CO2 and the number of viable cells in each well of the G0 plates or the dosed plates were measured by CellTiter-Glo® Luminescent Cell Viability Assay (Promega). This assay is a luminescent method for determining the number viable cells through measurement of cellular ATP concentration by detection of luciferase activity. Detection reagents (15 µl) was dispensed into per well, and the plates were incubate for 30 min at room temperature. Then, the luminescence in each well was measured using the Envision plate reader (PerkinElmer). The percentage of proliferation was calculated based on the formula: %Proliferation= 100 × (G3 value of sample well-Go value)/(G3 value of DMSO control-Go value).
# [3] = system: WT EGFR cell line A-431; assay: Cell proliferation, WT EGFR A431 (CellTiter-Glo, 72 h); type: cell-based; details: Homo sapiens, A-431, 72 h, A431, 72 h proliferation; read-out: EGFR WT A431 GI50;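 further: proliferation from a luminescent ATP viability signal, expressed as 100 × (treated minus time-zero plate) over (DMSO control minus time-zero plate), cells grown with 10% FBS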
# [4] = system: OCI-LY-10 cells; assay: BTK (wt) cell proliferation, OCI-LY-10 (CellTiter-Glo, 72 h); type: cell-based; details: Homo sapiens, OCI-Ly10, 72 h, OCI-LY-10 cells, 72 h, CellTiter-Glo; read-out: BTK WT OCI-LY-10 GI50;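 further: viable cells quantified via cellular ATP luminescence, proliferation given as percent of DMSO control after subtracting a duplicate plate read at time of dosing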
# [5] = target: T2, human Her2 exon 20 insertion mutation YVMA (Homo sapiens, UniProt P04626, INS775YVMA); assay: Her2 Exon 20 YVMA insertion cellular phosphorylation inhibition (MSD p-Her2 Y1248/total Her2); type: cell-based; details: Her2 YVMAins cells, 4 h compound;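 further: lentivirally transduced NIH-3T3 cells in 1% FBS medium, electrochemiluminescent MSD read-out, graded compound concentrations at 37 °C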
# T2 construct: expressed in transfected cells; host or cells: NIH-3T3, lentiviral transduction, puromycin selection
# T2 sequence (P04626 with tags, fused parts or gaps INS775YVMA): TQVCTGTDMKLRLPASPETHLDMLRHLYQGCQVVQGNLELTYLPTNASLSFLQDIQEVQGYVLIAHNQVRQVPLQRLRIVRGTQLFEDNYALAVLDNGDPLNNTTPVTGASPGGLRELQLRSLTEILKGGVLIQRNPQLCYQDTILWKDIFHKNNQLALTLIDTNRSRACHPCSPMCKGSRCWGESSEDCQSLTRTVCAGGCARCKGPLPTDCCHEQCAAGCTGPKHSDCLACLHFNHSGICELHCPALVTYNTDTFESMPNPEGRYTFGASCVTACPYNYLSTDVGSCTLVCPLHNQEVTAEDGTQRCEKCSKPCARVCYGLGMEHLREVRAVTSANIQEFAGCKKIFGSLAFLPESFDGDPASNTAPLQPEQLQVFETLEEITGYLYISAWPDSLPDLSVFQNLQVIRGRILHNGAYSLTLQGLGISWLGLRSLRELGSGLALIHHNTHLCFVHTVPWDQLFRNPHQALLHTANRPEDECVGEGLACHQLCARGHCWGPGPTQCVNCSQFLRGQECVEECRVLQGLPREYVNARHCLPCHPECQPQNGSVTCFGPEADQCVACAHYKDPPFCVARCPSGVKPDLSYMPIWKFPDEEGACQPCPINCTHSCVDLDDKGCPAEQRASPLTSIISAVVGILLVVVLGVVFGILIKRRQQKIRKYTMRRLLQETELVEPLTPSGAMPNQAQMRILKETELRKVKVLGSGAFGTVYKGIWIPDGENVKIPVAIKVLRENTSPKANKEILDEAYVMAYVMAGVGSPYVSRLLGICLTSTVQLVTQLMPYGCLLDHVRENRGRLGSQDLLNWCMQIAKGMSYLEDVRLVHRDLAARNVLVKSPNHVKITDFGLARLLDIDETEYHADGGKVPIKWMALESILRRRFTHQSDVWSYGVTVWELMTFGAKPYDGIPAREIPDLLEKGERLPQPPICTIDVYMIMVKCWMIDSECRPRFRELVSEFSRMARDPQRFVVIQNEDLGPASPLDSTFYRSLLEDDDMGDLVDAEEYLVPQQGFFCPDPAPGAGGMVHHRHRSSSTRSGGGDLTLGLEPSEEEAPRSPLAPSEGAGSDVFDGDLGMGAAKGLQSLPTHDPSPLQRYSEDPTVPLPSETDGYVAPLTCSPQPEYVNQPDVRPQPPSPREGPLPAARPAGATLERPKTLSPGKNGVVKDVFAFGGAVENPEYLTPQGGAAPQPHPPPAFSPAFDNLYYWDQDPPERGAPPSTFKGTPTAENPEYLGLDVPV
# [6] = system: DB cells; assay: BTK (wt) cell proliferation, DB (CellTiter-Glo, 72 h); type: cell-based; details: Homo sapiens, DB, DB cells, CellTiter-Glo, read-out: Non-BCR activated DB GI50;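 further: DB cells in 384-well plates given a dilution series of compound, viable cells read by ATP luminescence, growth expressed versus DMSO control after subtracting a time-zero plate reading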
# [7] = In vitro rat hepatocytes clearance assay; details: male, rat, cryopreserved rat hepatocytes (suspension), rat hepatocytes Clint (µL/min/10^6cells), 1 µM-range incubation up to 100 min
# Experimental: (§3) The protocol for rat/human hepatocytes metabolic stability assay is employed to determine the clearance of the compounds of the present disclosure in vitro.
# (§4) Rat hepatocytes in male gender and human hepatocytes in mixed gender were obtained from commercial vendors (e.g., BioreclamationIVT) and stored at -150° C. prior to use. 10 mM stock solutions of tested compounds were prepared in DMSO. Thawing medium and supplement incubation medium (serum-free) were placed in a 37° C. water bath for at least 15 minutes prior to use. Stock solutions were diluted to 100 µM by combining 198 µL acetonitrile and 2 µL of 10 mM stock solution.
# (§5) Vials of cryopreserved hepatocytes were removed from storage, ensured that vials remain at cryogenic temperatures. The vials were thawed in a 37° C. water bath with gently shaking. Vials were kept in water bath until all ice crystals had dissolved and were no longer visible. Vials were sprayed with 70% ethanol before being transferred to a biosafety cabinet. And then the contents were poured into the 50 mL thawing medium conical tube. Vials were centrifuged at 100 g for 10 minutes at room temperature.
# (§6) Cell viability and density were counted using a Trypan Blue exclusion, and then cells were diluted with serum-free incubation medium to a working cell density of 1 × 10^6 viable cells/ml. […] The inactivated hepatocytes were used to prepare negative samples, which were used to exclude the misleading factor that resulted from instability of chemical itself.
# (§7) Aliquots of 247.5 µL hepatocytes were dispensed into each well of a 96-well non-coated plate. The plate was placed in the incubator on an orbital shaker for approximately 10 minutes. Aliquots of 2.5 µL of the 100 µM test compounds were added into respective wells of the non-coated 96-well plate to start the reaction. This assay was performed in duplicate. The plate was incubated in the incubator on an orbital shaker for the designed time points. […] Samples were centrifuges for 20 minutes at 4000 g and aliquots of 100 µL of the supernatants were used for LC-MS/MS analysis for measurement of test compounds
# (§8) In vitro hepatocyte clearance was estimated based on determination of elimination half-life (T½) of compounds disappearance from their initial concentrations. Peak area ratios of each compound (test or control) to IS was calculated. Ln (%Control) versus Incubation Time (min) curve was plotted, and the slope of a linear fitting line was calculated.
# [8] = system: NSCLC with EGFR Exon20ins; assay: Anti-tumor activity in platinum-pretreated NSCLC patients with EGFR Exon20 insertion mutations; type: in vivo, human
# Source text: Compound 52 is a rationally designed, oral, EGFR Exon20 insertion (Exon20ins) inhibitor, with wild-type EGFR selectivity. […] Compound 52 is currently in late stage development with multiple pivotal studies ongoing globally as ≥ 2nd line treatment after platinum-containing chemotherapies and 1st line for treatment naive patients. Results from multicenter, multi-arm, global studies are presented herein.
# A total of 119 evaluable platinum-pretreated NSCLC patients with EGFR Exon20ins were included in efficacy set.
# [9] = target: T3, Phospho-BTK (Tyr223) (Homo sapiens, UniProt Q06187); assay: p-BTK assay in Ramos cells (HTRF Phospho-BTK Tyr223); type: cell-based; details: pervanadate stimulated, read-out: p-BTK (Romas) IC50
# T3 construct: endogenous in cells; host or cells: Ramos
# T3 sequence (Q06187 whole entry): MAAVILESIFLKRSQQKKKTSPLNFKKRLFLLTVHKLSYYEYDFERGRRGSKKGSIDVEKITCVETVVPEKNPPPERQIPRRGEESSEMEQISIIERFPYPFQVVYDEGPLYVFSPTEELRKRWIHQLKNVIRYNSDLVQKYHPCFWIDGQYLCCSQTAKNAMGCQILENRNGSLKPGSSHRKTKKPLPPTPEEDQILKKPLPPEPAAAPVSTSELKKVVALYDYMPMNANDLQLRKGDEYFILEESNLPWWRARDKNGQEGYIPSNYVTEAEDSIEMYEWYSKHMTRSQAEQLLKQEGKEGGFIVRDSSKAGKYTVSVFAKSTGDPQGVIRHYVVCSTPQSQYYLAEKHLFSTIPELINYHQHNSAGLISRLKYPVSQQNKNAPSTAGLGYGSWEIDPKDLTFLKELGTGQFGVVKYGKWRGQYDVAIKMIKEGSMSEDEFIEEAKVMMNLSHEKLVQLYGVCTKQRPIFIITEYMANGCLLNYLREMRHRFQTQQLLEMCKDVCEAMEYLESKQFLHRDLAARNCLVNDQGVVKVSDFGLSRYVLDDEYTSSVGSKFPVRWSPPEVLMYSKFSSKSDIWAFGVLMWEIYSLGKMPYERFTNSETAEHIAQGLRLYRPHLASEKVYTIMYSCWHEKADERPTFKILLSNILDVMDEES
# Experimental: The assay plates were then incubated for 30 minutes at 37° C., 5% CO2. 300 uM Per vanadate (3X) was added to each well and the assay plates were again incubated for 60 minutes at 37° C., 5% CO2. Phospho-BTK (Tyr223) is detected using the HTRF® reagents (Cisbio) according to the manufacturer’s one-plate assay protocol.
# [10] = In vitro human hepatocytes clearance assay; details: both, human, cryopreserved human hepatocytes (suspension), human hepatocytes Clint (µL/min/10^6cells), mixed gender human hepatocytes, incubation up to 100 min
# Experimental: as §3, §4, §5, §6, §7, §8
# [11] = target: T4, human EGFR exon 20 V769_D770insASV (Homo sapiens, UniProt P00533, INS769ASV); assay: EGFR Exon20 ASV insertion cellular phosphorylation inhibition (MSD pEGFR Y1068/total EGFR); type: cell-based; details: Ba/F3 EGFR ASV ins cells, 4 h compound, p-EGFR(Y1068)/total EGFR;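 further: electrochemiluminescent readout on an MSD SECTOR Imager, IL3-independent transduced cells in medium with 1% FBS, compound concentration series at 37 °C and 5% CO2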
# T4 construct: expressed in transfected cells; host or cells: Ba/F3 (DSMZ ACC-300), lentiviral transduction, puromycin selection, IL3 depletion
# T4 sequence (P00533 with tags, fused parts or gaps INS769ASV): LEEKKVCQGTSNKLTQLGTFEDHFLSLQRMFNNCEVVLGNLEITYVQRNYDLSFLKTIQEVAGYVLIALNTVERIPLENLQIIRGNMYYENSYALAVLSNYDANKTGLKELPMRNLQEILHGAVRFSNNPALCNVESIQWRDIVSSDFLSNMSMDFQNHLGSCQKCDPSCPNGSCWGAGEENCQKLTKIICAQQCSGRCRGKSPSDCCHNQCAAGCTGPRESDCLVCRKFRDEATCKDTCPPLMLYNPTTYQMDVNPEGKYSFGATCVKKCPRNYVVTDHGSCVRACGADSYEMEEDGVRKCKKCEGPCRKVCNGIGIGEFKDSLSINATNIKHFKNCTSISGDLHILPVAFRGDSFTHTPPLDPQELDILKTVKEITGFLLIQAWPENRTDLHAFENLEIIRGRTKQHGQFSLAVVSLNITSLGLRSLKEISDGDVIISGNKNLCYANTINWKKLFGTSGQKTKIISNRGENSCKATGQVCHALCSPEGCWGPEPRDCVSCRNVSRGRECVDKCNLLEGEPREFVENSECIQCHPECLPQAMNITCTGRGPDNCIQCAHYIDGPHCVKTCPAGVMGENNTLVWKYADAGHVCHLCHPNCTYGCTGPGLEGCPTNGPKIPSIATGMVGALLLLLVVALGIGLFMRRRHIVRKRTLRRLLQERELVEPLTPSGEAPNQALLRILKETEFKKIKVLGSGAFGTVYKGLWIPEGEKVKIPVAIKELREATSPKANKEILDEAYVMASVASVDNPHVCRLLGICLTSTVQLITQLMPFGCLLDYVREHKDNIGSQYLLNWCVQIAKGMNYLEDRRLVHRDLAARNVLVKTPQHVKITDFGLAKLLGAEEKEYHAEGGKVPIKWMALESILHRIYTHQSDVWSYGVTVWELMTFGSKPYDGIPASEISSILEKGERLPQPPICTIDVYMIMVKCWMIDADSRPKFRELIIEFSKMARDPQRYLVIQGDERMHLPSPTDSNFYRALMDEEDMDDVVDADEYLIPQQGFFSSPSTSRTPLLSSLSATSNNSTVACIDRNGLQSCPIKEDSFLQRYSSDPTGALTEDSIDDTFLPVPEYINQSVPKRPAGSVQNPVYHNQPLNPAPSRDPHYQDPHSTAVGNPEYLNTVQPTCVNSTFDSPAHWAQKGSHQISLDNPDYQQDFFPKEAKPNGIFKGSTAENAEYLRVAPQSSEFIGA
# [12] = system: Ba/F3 EGFR NPH ins cells; assay: Cell proliferation, Ba/F3 EGFR NPH ins (CellTiter-Glo, 72 h); type: cell-based; details: Ba/F3 EGFR, 72 h, Ba/F3 EGFR NPH ins, 72 h proliferation; read-out: EGFR Exon20 NPH insertion GI50;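 further: IL3-independent cells carrying constitutively phosphorylated EGFR, compound dilution series, viable cells quantified by ATP luminescence, growth relative to DMSO wells after subtracting pre-dosing (day 0) baseline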
# Experimental: Similar to recombinant human EGFR exon 20 H769_V770insASV Ba/F3 cell line, the recombinant human EGFR exon 20 H773_V774insNPH Ba/F3 cell line also expresses constitutively phosphorylated EGFR protein and proliferates in the absence of IL3, which could be used for in vitro PD and anti-proliferation assays.
# as §2
# [13] = target: T1, BTK; assay: BTK target site occupancy ELISA (Ramos); type: cell-based; set-up: endogenous in cells; host or cells: Ramos; details: BTK receptor occupancy, read-out: Occupancy (Romas) IC50
# Experimental: as §1
# [14] = target: T5, human EGFR exon 20 H773_V774insNPH (Homo sapiens, UniProt P00533, INS773NPH); assay: EGFR Exon20 NPH insertion cellular phosphorylation inhibition (MSD pEGFR Y1068/total EGFR); type: cell-based; details: Ba/F3 EGFR NPH ins cells, 4 h compound, p-EGFR(Y1068)/total EGFR;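 further: IL3-independent Ba/F3 cells with constitutively phosphorylated EGFR, compound exposure at 37 °C under 5% CO2, electrochemiluminescent MSD measurement of the p-EGFR to total EGFR ratio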
# T5 construct: host or cells: Ba/F3
# T5 sequence (P00533 with tags, fused parts or gaps INS773NPH): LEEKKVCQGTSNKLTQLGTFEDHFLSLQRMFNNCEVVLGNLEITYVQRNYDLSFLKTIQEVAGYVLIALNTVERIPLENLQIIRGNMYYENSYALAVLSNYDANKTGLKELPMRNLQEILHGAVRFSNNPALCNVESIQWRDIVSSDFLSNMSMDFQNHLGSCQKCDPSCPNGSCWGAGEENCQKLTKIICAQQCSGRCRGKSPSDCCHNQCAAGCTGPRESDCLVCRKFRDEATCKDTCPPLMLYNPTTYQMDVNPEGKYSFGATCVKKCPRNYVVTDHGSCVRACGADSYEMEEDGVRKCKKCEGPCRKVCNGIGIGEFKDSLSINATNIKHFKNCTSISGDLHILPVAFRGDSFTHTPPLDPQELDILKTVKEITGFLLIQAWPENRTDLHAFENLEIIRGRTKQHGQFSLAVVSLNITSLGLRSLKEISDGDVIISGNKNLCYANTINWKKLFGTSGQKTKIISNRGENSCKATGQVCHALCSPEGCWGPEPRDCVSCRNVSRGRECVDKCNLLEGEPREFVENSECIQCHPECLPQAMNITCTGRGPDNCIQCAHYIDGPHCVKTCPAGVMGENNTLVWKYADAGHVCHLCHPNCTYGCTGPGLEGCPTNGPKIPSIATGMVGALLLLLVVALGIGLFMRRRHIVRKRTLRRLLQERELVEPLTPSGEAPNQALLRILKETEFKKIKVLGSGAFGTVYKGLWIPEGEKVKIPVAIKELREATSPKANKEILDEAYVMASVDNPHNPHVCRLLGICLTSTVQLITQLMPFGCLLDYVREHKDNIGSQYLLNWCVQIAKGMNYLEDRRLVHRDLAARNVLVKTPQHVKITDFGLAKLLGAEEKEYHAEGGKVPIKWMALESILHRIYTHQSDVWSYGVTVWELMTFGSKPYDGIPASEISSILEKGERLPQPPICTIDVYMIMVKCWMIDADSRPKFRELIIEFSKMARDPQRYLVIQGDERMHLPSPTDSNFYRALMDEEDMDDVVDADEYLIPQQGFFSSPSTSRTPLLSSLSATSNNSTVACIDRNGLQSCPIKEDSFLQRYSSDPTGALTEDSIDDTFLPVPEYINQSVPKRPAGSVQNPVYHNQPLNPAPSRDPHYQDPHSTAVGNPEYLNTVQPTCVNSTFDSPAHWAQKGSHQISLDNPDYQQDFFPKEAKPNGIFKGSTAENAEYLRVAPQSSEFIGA
# [15] = target: T6, WT EGFR (Homo sapiens, UniProt P00533); assay: WT EGFR cellular phosphorylation inhibition in A-431 (hEGF stimulated, MSD); type: cell-based; details: A431 cells, 4 h compound, then 100 ng/ml hEGF 10 min;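 further: electrochemiluminescence read-out of EGFR Tyr1068 phosphorylation expressed as ratio to total EGFR, cells kept in medium with 1% FBS, compounds tested as a concentration series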
# T6 construct: host or cells: A-431
# [16] = system: NSCLC with EGFR sensitizing, double or uncommon mutation; assay: Anti-tumor activity in NSCLC patients with EGFR mutation beyond Exon20ins; type: in vivo, human; details: 50-400 mg once daily oral
# Experimental: Compound 52 was explored at 50 mg, 100 mg, 200 mg, 300 mg and 400 mg once daily with oral administration in 12 non-small cell lung cancer (NSCLC) patients with EGFR sensitizing mutation (L858R or 19del), sensitizing (L858R or 19del) and T790M double mutation (double mutation) or less common non-resistant mutation (uncommon mutation, including Gly719Xaa, Leu861Gln, or Ser768Ile mutation). […] In 2 patients with uncommon mutation, 1 SD and 1 PD was observed after Compound 52 treatment.
# [17] = 50 mg (N = 3), post platinum-based chemotherapy
# [18] = 100 mg (N = 2), post platinum-based chemotherapy
# [19] = 200 mg (N = 21), post platinum-based chemotherapy
# [20] = 300 mg (N = 84), post platinum-based chemotherapy
# [21] = 400 mg (N = 9), post platinum-based chemotherapy
# [22] = Total (N = 119), post platinum-based chemotherapy
# [23] = 2 patients with uncommon mutation
# [24] = 4 NSCLC patients with EGFR sensitizing mutation
# [25] = 5 NSCLC patients with EGFR double mutation
# T1 sequence (Q06187 whole entry): as the sequence (Q06187 whole entry) above
compound,measurement,setting,value
"C=CC(=O)Nc1cc(Nc2nccc(Nc3cc(Cl)c(F)cc3C(C)(C)O)n2)c(OC)cc1N1CC[C@@H](N(C)C)C1 [Compound 52, (R)-N-(5-(4-(5-chloro-4-fluoro-2-(2-hydroxypropan-2-yl)phenylamino)pyrimidin-2-ylamino)-2-(3-(dimethylamino)pyrrolidin-1-yl)-4-methoxyphenyl)a crylamide]",IC50,[1],2.9 nM
same,GI50,[2],3.3 nM
same,GI50,[3],47.1 nM
same,GI50,[4],3.2 nM
same,IC50,[5],7.5 nM
same,GI50,[6],1980 nM
same,hepatocyte CLint at 1 µM,[7],13.3 µL/min/1e6 cells
same,"Best Objective Response Rate, PD (progressive disease)",[8]; [17],1 (33.3) n(%)
same,"Best Objective Response Rate, PR",[8]; [17],0 (0.0) n(%)
same,"Best Objective Response Rate, PR, confirmed",[8]; [17],0 (0.0) n(%)
same,"Best Objective Response Rate, PR, pending confirmation",[8]; [17],0 (0.0) n(%)
same,"Best Objective Response Rate, SD (stable disease)",[8]; [17],2 (66.7) n(%)
same,"Best Objective Response Rate, PD (progressive disease)",[8]; [18],0 (0.0) n(%)
same,"Best Objective Response Rate, PR",[8]; [18],1 (50.0) n(%)
same,"Best Objective Response Rate, PR, confirmed",[8]; [18],1 (50.0) n(%)
same,"Best Objective Response Rate, PR, pending confirmation",[8]; [18],0 (0.0) n(%)
same,"Best Objective Response Rate, SD (stable disease)",[8]; [18],1 (50.0) n(%)
same,"Best Objective Response Rate, PD (progressive disease)",[8]; [19],3 (14.3) n(%)
same,"Best Objective Response Rate, PR",[8]; [19],10 (47.6) n(%)
same,"Best Objective Response Rate, PR, confirmed",[8]; [19],7 (33.3) n(%)
same,"Best Objective Response Rate, PR, pending confirmation",[8]; [19],2 (9.5)* n(%)
same,"Best Objective Response Rate, SD (stable disease)",[8]; [19],9 (42.9) n(%)
same,"Best Objective Response Rate, PD (progressive disease)",[8]; [20],9 (10.7) n(%)
same,"Best Objective Response Rate, PR, confirmed",[8]; [20],32 (38.1) n(%)
same,"Best Objective Response Rate, PR, pending confirmation",[8]; [20],8 (9.5)* n(%)
same,"Best Objective Response Rate, SD (stable disease)",[8]; [20],35 (41.7) n(%)
same,best Overall Response Rate (ORR),"[8]; 300 mg once daily, 44/84 patients, post platinum-based chemotherapy",52.4%
same,"Best Objective Response Rate, PD (progressive disease)",[8]; [21],2 (22.2) n(%)
same,"Best Objective Response Rate, PR",[8]; [21],2 (22.2) n(%)
same,"Best Objective Response Rate, PR, confirmed",[8]; [21],2 (22.2) n(%)
same,"Best Objective Response Rate, PR, pending confirmation",[8]; [21],0 (0.0) n(%)
same,"Best Objective Response Rate, SD (stable disease)",[8]; [21],5 (55.6) n(%)
same,"Best Objective Response Rate, PD (progressive disease)",[8]; [22],15 (12.6) n(%)
same,"Best Objective Response Rate, PR",[8]; [22],57 (47.9) n(%)
same,"Best Objective Response Rate, PR, confirmed",[8]; [22],42 (35.3) n(%)
same,"Best Objective Response Rate, PR, pending confirmation",[8]; [22],10 (8.4)* n(%)
same,"Best Objective Response Rate, SD (stable disease)",[8]; [22],52 (43.7) n(%)
same,ORR for patients with baseline brain metastasis,"[8]; across studies, 11/25 patients",44%
same,first response observed after treatment,"[8]; single patient, stage IV NSCLC with CNS metastasis, 300 mg once daily",6 weeks
same,IC50,[9],2.9 nM
same,hepatocyte CLint at 1 µM,[10],3.29 µL/min/1e6 cells
same,IC50,[11],20.4 nM
same,GI50,[12],60.4 nM
same,IC50,[13],0.6 nM
same,IC50,[14],20.4 nM
same,IC50,[15],80.4 nM
same,patients with PD,[16]; [23],1
same,patients with SD,[16]; [23],1
same,patients with PD,[16]; [24],1
same,patients with SD,[16]; [24],2
same,patients with best response of PR,[16]; [24],1
same,patients with best response of partial response (PR),[16]; [25],2
same,patients with progressive disease (PD),[16]; [25],2

# Source: patent US20230293535A1, “ERBB/BTK INHIBITORS” (Dizal (Jiangsu) Pharmaceutical Co., Ltd., priority 2018, published 2023)
